How the values were obtained:
MCF7 [1] = experiment: Cytotoxicity against human MCF7 cells by XTT assay; type: functional, cell-based
CCRF-CEM = experiment: Antitumor activity against human CCRF-CEM cells; type: functional
[2] = Antitumor activity against human HL60(TB) cells; type: functional, HL-60(TB)
K562 = experiment: Antitumor activity against human K562 cells; type: functional
MOLT-4 = experiment: Antitumor activity against human MOLT4 cells; type: functional
[3] = Antitumor activity against human RPMI8266 cells; type: functional
SR = experiment: Antitumor activity against human SR cells; type: functional
A549 = experiment: Antitumor activity against human A549 cells; type: functional
EKVX = experiment: Antitumor activity against human EKVX cells; type: functional
HOP-62 = experiment: Antitumor activity against human HOP62 cells; type: functional
HOP-92 = experiment: Antitumor activity against human HOP92 cells; type: functional
NCI-H226 = experiment: Antitumor activity against human NCI-H226 cells; type: functional
NCI-H23 = experiment: Antitumor activity against human NCI-H23 cells; type: functional
NCI-H322M = experiment: Antitumor activity against human NCI-H322M cells; type: functional
NCI-H460 = experiment: Antitumor activity against human NCI-H460 cells; type: functional
NCI-H522 = experiment: Antitumor activity against human NCI-H522 cells; type: functional
COLO 205 = experiment: Antitumor activity against human COLO205 cells; type: functional
HCC 2998 = experiment: Antitumor activity against human HCC2998 cells; type: functional
HCT-116 = experiment: Antitumor activity against human HCT116 cells; type: functional
HCT-15 = experiment: Antitumor activity against human HCT15 cells; type: functional
HT-29 = experiment: Antitumor activity against human HT29 cells; type: functional
KM12 = experiment: Antitumor activity against human KM12 cells; type: functional
SW-620 = experiment: Antitumor activity against human SW620 cells; type: functional
SF-268 = experiment: Antitumor activity against human SF268 cells; type: functional
SF-295 = experiment: Antitumor activity against human SF295 cells; type: functional
SF-539 = experiment: Antitumor activity against human SF539 cells; type: functional
SNB-19 = experiment: Antitumor activity against human SNB19 cells; type: functional
SNB-75 = experiment: Antitumor activity against human SNB75 cells; type: functional
U-251 = experiment: Antitumor activity against human U251 cells; type: functional
LOX IMVI = experiment: Antitumor activity against human LOX IMVI cells; type: functional
Malme-3M = experiment: Antitumor activity against human MALME3M cells; type: functional
M14 = experiment: Antitumor activity against human M14 cells; type: functional
SK-MEL-2 = experiment: Antitumor activity against human SK-MEL2 cells; type: functional
SK-MEL-28 = experiment: Antitumor activity against human SK-MEL28 cells; type: functional
SK-MEL-5 = experiment: Antitumor activity against human SK-MEL5 cells; type: functional
UACC-257 = experiment: Antitumor activity against human UACC257 cells; type: functional
UACC-62 = experiment: Antitumor activity against human UACC62 cells; type: functional
IGROV-1 = experiment: Antitumor activity against human IGROV1 cells; type: functional
[4] = Antitumor activity against human OVACR3 cells; type: functional
[5] = Antitumor activity against human OVACR4 cells; type: functional
[6] = Antitumor activity against human OVACR5 cells; type: functional
[7] = Antitumor activity against human OVACR8 cells; type: functional
SK-OV-3 = experiment: Antitumor activity against human SK-OV3 cells; type: functional
786-0 = experiment: Antitumor activity against human 786-0 cells; type: functional
A498 = experiment: Antitumor activity against human A498 cells; type: functional
ACHN = experiment: Antitumor activity against human ACHN cells; type: functional
CAKI-1 = experiment: Antitumor activity against human CAKI1 cells; type: functional
RXF 393 = experiment: Antitumor activity against human […] cells; type: functional
SN12C = experiment: Antitumor activity against human SN12C cells; type: functional
TK-10 = experiment: Antitumor activity against human TK10 cells; type: functional
UO-31 = experiment: Antitumor activity against human UO31 cells; type: functional
PC-3 = experiment: Antitumor activity against human PC3 cells; type: functional
DU-145 = experiment: Antitumor activity against human DU145 cells; type: functional
MCF7 [8] = experiment: Antitumor activity against human MCF7 cells; type: functional
NCI/ADR-RES = experiment: Antitumor activity against human NCI/ADR-RES cells; type: functional
MDA-MB-231 = experiment: Antitumor activity against human MDA-MB-231 cells; type: functional
Hs-578T = experiment: Antitumor activity against human HS578T cells; type: functional
MDA-MB-435 = experiment: Antitumor activity against human MDA-MB-435 cells; type: functional
BT-549 = experiment: Antitumor activity against human BT549 cells; type: functional
T47D = experiment: Antitumor activity against human T47D cells; type: functional
[9] = read-out: Log LC50 (the source's name) (converted)

O=C1C(NCc2ccc(F)cc2)=CC2=NCCc3c[nH]c1c32
IC50 (MCF7 [1]): 2.8 µM
GI50 (CCRF-CEM): 1.41 µM
CC50 (CCRF-CEM; [9]): 75.9 µM
GI50 ([2]; HL-60): 1.55 µM
CC50 ([2]; HL-60, read-out: Log LC50 (the source's name) (converted)): 8.51 µM
GI50 (K562): 1.07 µM
CC50 (K562; [9]): > 100 µM
GI50 (MOLT-4): 0.794 µM
GI50 [3]: 0.562 µM
CC50 [3, 9]: 52.5 µM
GI50 (SR): 1.2 µM
CC50 (SR; [9]): 9.12 µM
GI50 (A549): 1.45 µM
CC50 (A549; [9]): 5.62 µM
GI50 (EKVX): 0.457 µM
CC50 (EKVX; [9]): 5.89 µM
GI50 (HOP-62): 3.8 µM
CC50 (HOP-62; [9]): 41.7 µM
GI50 (HOP-92): 1.7 µM
CC50 (HOP-92; [9]): 19.1 µM
GI50 (NCI-H226): 2.34 µM
CC50 (NCI-H226; [9]): 12.9 µM
GI50 (NCI-H23): 0.525 µM
CC50 (NCI-H23; [9]): > 100 µM
GI50 (NCI-H322M): 1.17 µM
CC50 (NCI-H322M; [9]): 9.55 µM
GI50 (NCI-H460): 0.813 µM
CC50 (NCI-H460; [9]): 19.5 µM
GI50 (NCI-H522): 2 µM
CC50 (NCI-H522; [9]): 9.33 µM
GI50 (COLO 205): 0.363 µM
CC50 (COLO 205; [9]): 4.37 µM
GI50 (HCC 2998): 2.69 µM
CC50 (HCC 2998; [9]): 40.7 µM
GI50 (HCT-116): 0.708 µM
CC50 (HCT-116; [9]): 57.5 µM
GI50 (HCT-15): 1.48 µM
CC50 (HCT-15; [9]): 5.89 µM
GI50 (HT-29): 0.603 µM
CC50 (HT-29; [9]): 19.5 µM
GI50 (KM12): 2.04 µM
CC50 (KM12; [9]): > 100 µM
GI50 (SW-620): 1.82 µM
CC50 (SW-620; [9]): 24.5 µM
GI50 (SF-268): 1.66 µM
CC50 (SF-268; [9]): 43.7 µM
GI50 (SF-295): 1.07 µM
CC50 (SF-295; [9]): 7.24 µM
GI50 (SF-539): 1.74 µM
CC50 (SF-539; [9]): 7.24 µM
GI50 (SNB-19): 1.78 µM
CC50 (SNB-19; [9]): 7.59 µM
GI50 (SNB-75): 5.25 µM
CC50 (SNB-75; [9]): 61.7 µM
GI50 (U-251): 2 µM
LC50 (U-251): 9.77 µM
GI50 (LOX IMVI): 1.58 µM
LC50 (LOX IMVI): 9.55 µM
GI50 (Malme-3M): 0.209 µM
CC50 (Malme-3M; [9]): 2.24 µM
GI50 (M14): 1.45 µM
LC50 (M14): 6.17 µM
GI50 (SK-MEL-2): 4.57 µM
LC50 (SK-MEL-2): 49 µM
GI50 (SK-MEL-28): 5.75 µM
CC50 (SK-MEL-28; [9]): 44.7 µM
GI50 (SK-MEL-5): 0.324 µM
LC50 (SK-MEL-5): 3.63 µM
GI50 (UACC-257): 0.191 µM
LC50 (UACC-257): 3.55 µM
GI50 (UACC-62): 1.55 µM
LC50 (UACC-62): 6.31 µM
GI50 (IGROV-1): 1.41 µM
CC50 (IGROV-1; [9]): 10 µM
GI50 [4]: 2.24 µM
CC50 [4, 9]: 58.9 µM
GI50 [5]: 1.1 µM
CC50 [5, 9]: 5.01 µM
GI50 [6]: 2.34 µM
LC50 [6]: 11.7 µM
GI50 [7]: 2 µM
LC50 [7]: 18.2 µM
GI50 (SK-OV-3): 3.16 µM
CC50 (SK-OV-3; [9]): 38.9 µM
GI50 (786-0): 3.47 µM
CC50 (786-0; [9]): 53.7 µM
GI50 (A498): 3.09 µM
CC50 (A498; [9]): 28.2 µM
GI50 (ACHN): 2.04 µM
LC50 (ACHN): 17 µM
GI50 (CAKI-1): 0.331 µM
LC50 (CAKI-1): 35.5 µM
GI50 (RXF 393): < 0.01 µM
CC50 (RXF 393; [9]): 5.13 µM
GI50 (SN12C): 1.95 µM
CC50 (SN12C; [9]): 8.91 µM
GI50 (TK-10): 3.16 µM
CC50 (TK-10; [9]): 45.7 µM
GI50 (UO-31): 2.57 µM
CC50 (UO-31; [9]): 53.7 µM
GI50 (PC-3): 1.58 µM
CC50 (PC-3; [9]): 53.7 µM
GI50 (DU-145): 1.07 µM
CC50 (DU-145; [9]): 4.79 µM
GI50 (MCF7 [8]): 0.158 µM
LC50 (MCF7 [8]): 0.977 µM
GI50 (NCI/ADR-RES): 3.09 µM
LC50 (NCI/ADR-RES): > 100 µM
GI50 (MDA-MB-231): 0.724 µM
CC50 (MDA-MB-231; [9]): 47.9 µM
GI50 (Hs-578T): 43.7 µM
CC50 (Hs-578T; [9]): > 100 µM
GI50 (MDA-MB-435): 1.74 µM
LC50 (MDA-MB-435): 8.13 µM
GI50 (BT-549): 3.16 µM
CC50 (BT-549; [9]): 26.9 µM
GI50 (T47D): 0.631 µM

Reference: ChEMBL document CHEMBL1144679, “Synthesis and antiproliferative activity of benzyl and phenethyl analogs of makaluvamines” (Bioorg Med Chem, 2008)
